These results are taken from US20260120814A1, “SYSTEMS, METHODS, AND DEVICES FOR PREDICTING PHARMACOKINETIC INFLUENCES ON KETOGENESIS FOLLOWING ADMINISTRATION OF TRICAPRILIN” (CERECIN INC., priority 2022, published 2026).

Molecules are shown by their SMILES. Converted amounts (≈) assume the structure as drawn.

Data set [1] in a line: Phase I clinical pharmacokinetic study of AC-SD-03. As to conditions: human. In kind it is in vivo, healthy male (Caucasian and Chinese) volunteers. Here is the method:
A clinical pharmacokinetic study can be conducted (e.g., to generate the model inputs 106) with the MCT formulation. For example, a clinical pharmacokinetic study was conducted on the tricaprilin product AC-SD-03, approved by the local Institutional Review Board and carried out in compliance with the Good Clinical Practice guidelines of the International Conference of Harmonization (ICH-GCP). It was an open-label, randomized 2-way crossover study. Twenty healthy male (Caucasian and Chinese) volunteers in an age range of 18-50 years were enrolled. All subjects had undergone a supervised overnight fast of at least 8 h until 1 h before their scheduled morning dose. The breakfast consisting of 2 pieces of toast with butter, 2 strips of bacon, 2 scrambled eggs, 113 g of hash browns, and 240 mL of whole milk was standardized for all subjects. […] An additional 60 ml of water was used to rinse the dosing cup and administered to the subjects. Water was only restricted 1 h before and 1 h after drug administration, but was allowed ad libitum at all other times. Food and other fluid intake was restricted throughout the confinement period. Upon peroral administration of a single dose of the formulation, the blood tricaprilin, octanoic acid, and ketone body concentrations were quantified. For tricaprilin, blood samples were collected at 0, 1.5, 2.0, 2.5, and 8 h. […]

Data set [2] can be described thus: Estimated absorption of undigested tricaprilin into blood circulation. As to conditions: during the first 4 hours. The procedure:
As a next step, the digestion of the MCT formulation (such as AC-SD-03) in vitro can be measured. The formulation can be exposed to a gastric medium followed by lipolysis in a medium simulating intestinal conditions. The latter can result in the liberation of fatty acids expressed as the percentage of digested free fatty acid (e.g., tricaprilin), as shown at the graph 306. For each mole of tricaprilin, three moles of titratable fatty acids can be released. Within the first 5 min, 40±3% of tricaprilin can be converted to octanoic acid, followed by a gradual reduction in the digestion rate. After 15 min, the digestion profile plateaued at 83±4%. Assuming rapid absorption from the intestine, the digestion rate (kd) and extent (F) of lipolysis are mainly responsible for the bioavailability of octanoic acid. […] On a side note, there can be a certain probability that undigested tricaprilin can be absorbed into blood circulation as well. However, one estimated rate can be […] for this process. This corresponds to less than 0.5% of the total dose during the first 4 hours. […] Metabolic processes such as the hepatic conversion of tricaprilin would generally result in the formation of octanoic acid, subsequently converted to ketone bodies.

Data set [3] in a line: PBB model population parameters fitted to the phase I clinical trial. Set-up: species or system humans. The conditions noted are these: population parameter, after peroral AC-SD-03. The text has this:
In some scenarios the PBB model 102 can be written in the Mixtran programming language and executed using Monolix 2020R1 (e.g., Antony, France). The initial parameters and fixed-parameter ranges (e.g., such as those shown in Table 1 and/or the model inputs 106) can be obtained (e.g., from experimentation data and/or literature data).
In the following, population parameters can be obtained for the target population treated with a MCT formulation (e.g., AC-SD-03) using the Stochastic Approximation Expectation-Maximization (SAEM) algorithm. The population parameters can be considered to be log-normally distributed. Additionally, the estimation tasks of the empirical Bayes estimates (EBEs) and the conditional distribution can be performed to calculate the individual predictions and give the uncertainty of the individual parameters and the data for each individual, respectively. The individual clinical data 124 for the free fatty acid (e.g., octanoic acid) and ketones obtained from the pharmacokinetic study can be used for model validation. For instance, the accuracy of the prediction can be assessed by calculating the relative mean absolute prediction error (MAPE, %) using the following equation: […]
In some scenarios, considering that all population parameters can be within the initial ranges and prediction errors can remain at a low level, initial values (Table 1) can provide an estimate of the physiological and formulation-related influences. This leads to the following conclusions. Once tricaprilin reaches the small intestine, with a rate of 1.7 h^1, the absorption of fatty acids can become the rate-limiting step. Also, there can be more significant fluctuations in the absorption rate between different individuals as compared to the much faster lipolysis (4.6 h-1) and ketogenesis (2.6 h^1). The conversion of octanoic acid in the liver can play a minor role in the availability of the active form of tricaprilin. […] These observations can be systematically evaluated in the PPSA, and/or can be provided to the PBB model 102 as model inputs 106 or as part of a validation process.

The conditions of data set [4]: cited from earlier work.
On the set-up of data set [5]: species or system humans. The conditions noted are these: human, in vivo. An excerpt:
To estimate the parameters involved in the distribution, metabolism, and elimination of the free fatty acid (such as octanoic acid), reliable data sources can be identified for generating a training data set to describe plasma pharmacokinetics after intravenous administration of either free fatty acids (such as octanoic acid) or ketones. Pharmacokinetic data 120 related to the MCT (such as tricaprilin) and its metabolites in humans, which can be included in the training data 122 and/or used by a validation system 124 of the biopharmaceutics modeling system, is summarized in Table 2:
In some examples, ketone plasma concentration can be quantified following an intravenous bolus injection of sodium acetoacetate (n=12). Acetoacetate and D-f3-hydroxybutyrate (n=6), two main components of plasma ketones, can also be quantified upon intravenous infusion of D-f3-hydroxybutyrate at three different doses. Blood free fatty acid (such as octanoic acid) concentration can be measured upon peroral administration of the free fatty acid (e.g, octanoic acid) at five different doses to a patient population (n=3 per dose). This pharmacokinetic data 120 can be analyzed using PKanalix 2020R1 (e.g., Lixoft, Antony, France). These injections, infusions, and/or consumptions of the doses by a target patient can be provided to the PBB model 102 (e.g., as the patient data 105). […]

For the compound `CCCCCCCC(=O)OCC(COC(=O)CCCCCCC)OC(=O)CCCCCCC` [Tricaprilin], in data set [1] (phase I clinical trial, peroral AC-SD-03), the “tricaprilin found in blood circulation” value is “negligible amounts”. For the same compound, the highest concentration (Cmax) – broadly, the maximum level reached in the sampled fluid or tissue – in data set [1] (male, blood, oral, 50 g AC-SD-03 (42,500 μmol tricaprilin), read-out: Cmax of undigested triglyceride) came to 1050 nM. Besides, in data set [2], the “fraction of total dose absorbed as undigested tricaprilin” value was “less than 0.5%”. Moreover, the lipolysis rate in data set [3] stood at 4.6 h⁻¹. For the same compound, the aqueous solubility (as a rule, the concentration that dissolves in the medium under given conditions) in data set [4] was 0.4 µg/mL (≈ 0.85 µM).

Turning to `CCCCCCCC(=O)O` [octanoic acid], in data set [5], the “VOA, volume of distribution of octanoic acid” value is 40.55 to 163.26 L and the “absorption rate constant (ka)” value was in the range of 0.23 to 3.16 h⁻¹. For the same compound, in data set [3], the “absorption rate of fatty acids” value is recorded as 1.7 h^1 and the ketogenesis rate was determined as 2.6 h^1.
